Data published in patent publication US8999293B2, “Animal model of anxiety and depression” (University of Mississippi, priority 2005, dated 2015).
Read-outs that look alike come from different tables or passages of the source.

Assays:
[1] = test system: isolated cockerels (Gallus gallus; W36); assay: Chick anxiety-depression model, drug probe studies, 120 min isolation (Example 3); conditions: for ED50: Gallus gallus; for isolation-induced DVoc rate during the anxiety-like phase (first five min time block) / isolation-induced DVoc rate during the depression-like phase (30-120 min) / sleep onset latency (SOL) to index sedation: IM fifteen minutes prior to testing; for isolation-induced DVoc rate during the anxiety-like phase (first five min time block) / isolation-induced DVoc rate during the depression-like phase (30-120 min): vs vehicle/isolated; for isolation-induced DVoc rate during the anxiety-like phase (first five min time block): attenuation = anxiolytic effect; for isolation-induced DVoc rate during the depression-like phase (30-120 min): increase = antidepressant effect; for sleep onset latency (SOL) to index sedation: vs vehicle/isolated chicks
Experimental: Subjects and Housing Procedures. Cockerels (Gallus gallus; W36; Cal-Maine Foods, Inc.; Mendenhall, Miss.) were received one-day posthatch and housed in 34×57×40 cm stainless steel cages with 12-13 chicks per cage. Food (Purina Start and Grow, St. Louis, Mo.) and water were available ad libitum through one quart gravity-fed feeders (Murray MacMurray; Model 4BGFJ) and waterers (Murray MacMurray; Model 4YQW0). Room temperature was maintained at 29±1° C. and overhead illumination was maintained on a 12 hr light-dark cycle. Daily maintenance, which was conducted during the first three hr of the light cycle, involved refilling the waterer, refilling the feeder, and replacement of tray liners.
Apparatus. The testing apparatus consisted of a six-unit test apparatus containing Plexiglas viewing chambers (25×25×22 cm) placed in sound-attenuating enclosures. Each unit was illuminated and heated by a 25-W light bulb. Ventilation was provided by an eight centimeter diameter rotary fan (Commonwealth Model FP-108AX 51). Miniature video cameras (SuperCircuit Model PC60XP) mounted in the sound-attenuating enclosures at floor level and routed through a Multiplexor (SuperCircuit Model PC47MC) provided televised display of the chicks for behavioral observation. Distress vocalizations (DVocs) were recorded by microphones (Lafayette Instruments Model 3-675-001) mounted in the ceilings of the Plexiglas chambers and connected to digital sound-activating relays (Lafayette Instruments Model 63040A; settings: 75% sensitivity and 0.10 s delay) that triggered electromechanical counters (Lafayette Instruments Model 58004).
Drug Probes. All experiments were conducted between five- and seven days posthatch. The groups in each experiment formed a 1×5 factorial design with a hanging control condition (n=9-12). The two vehicle control groups constituted the social separation stress manipulation. This manipulation involved placing a chick in the Plexiglas test chamber either in isolation or with two social companions for a 120 min test observation period. All drug probes were tested in the isolation condition.
Vehicle or a drug was administered IM fifteen minutes prior to testing. Dependent measures that were collected during the test session were DVocs to index separation stress and sleep onset latency (SOL) to index sedation. DVocs were defined as the vocalizations that are picked up by the electromechanical counters. SOL was defined as the time in which a chick adopts a sleep-like posture with either its chest in full contact with the floor and its eyes closed or its legs in a wide posture, its head drooping, and its eyes closed. Following each six-chick test session, the animals were returned to their home cage. After all animals were tested, they were euthanized via CO^2 asphyxiation.
Statistical Analyses. In order to discretely analyze the drug effects in the anxiety-like state and the depression-like state, the raw DVoc data were converted to a rate per min score. The anxiety-like state DVoc rate consisted of the mean DVocs per min over the first five min of the test session. The depression-like state DVoc rate consisted of the mean DVocs per min from 30 min to 120 min. Following this conversion, the DVoc rates from the anxiety-like phase and depression-like phase were analyzed with a one-way ANOVA with Fisher's LSD post hoc analysis. Plasma IL-6 concentration data were analyzed using one-way ANOVA with Fisher's LSD post hoc analysis and independent sample t-tests.

[2] = test system: isolated cockerels (Gallus gallus, strain W-36); assay type: in vivo; conditions: isolated chicks vs vehicle-isolated, chlordiazepoxide 8 mg/kg
Excerpt: Subjects. Cockerels (Gallus gallus, strain W-36; Cal-Maine Foods, Mendenhall, Miss., USA) were obtained 1 day posthatch and housed in stainless steel cages (34×57×40 cm) at a population density of 12 chicks per cage. Food (Purina Start and Grow, St. Louis, Mo., USA) and water were available ad libitum through a 1-quart gravity-fed feeders and waterers.
Apparatus. […] The units were illuminated using 25-W light bulbs and ventilated by an 8-cmdiameter rotary fan. Miniature video cameras mounted at floor level in the corner of the enclosures allowed for animal observation. Microphones that mounted at the ceiling of the Plexiglas chamber were connected to digital sound-activating relays, which activated electromechanical counters. A white noise generator provided room masking noise.
Procedure. Tests were conducted at either Day 4, 5, or 6 posthatch. Groups formed a single factorial design with a hanging control that included two vehicle-control groups in which chicks were tested in either an isolated or social condition, and two drug groups under the isolation condition. The vehicle was 0.9% physiological saline and the drug probes were chlordiazepoxide (8 mg/kg) and imipramine (15 mg/kg). Sample sizes were n=12 per cell. […]
Statistics. Data were analyzed using one- and two-way repeated measures analysis of variance (ANOVA) and one-way simple effects ANOVA. […]

domestic fowl chicks = conditions: cited from earlier work; for detection of anxiolytic activity on separation-induced distress vocalizations: Feltenstein et al. 2004; for detection in the chick separation stress paradigm: Warnick et al. 2006, panic disorder vs generalized anxiety disorder drugs
[3] = test system: Black Australorp chicks (stress-vulnerable); assay: Chick anxiety-depression model, 90 min isolation, Black Australorp strain (Example 5); conditions: data not shown
[4] = read-out: ED50 AD Effect (40-60 min time block)
[5] = read-out: ED50 AD Effect (60-80 min time block)
[6] = read-out: ED50 AD Effect (80-100 min time block)
[7] = read-out: ED50 AD Effect (100-120 min time block)

CNCCC(Oc1ccc(C(F)(F)F)cc1)c1ccccc1 (centres unmarked) [Fluoxetine, fluoxetine]
ED50 [1, 4]: 16.5 mg/kg
ED50 [1, 5]: 13.3 mg/kg
ED50 [1, 6]: 14 mg/kg
ED50 [1, 7]: 14 mg/kg
isolation-induced DVoc rate during the anxiety-like phase (first five min time block) [1]: none of the doses of fluoxetine attenuated DVocs
isolation-induced DVoc rate during the depression-like phase (30-120 min) [1]: significant exacerbation of the DVoc rate in the 1 mg/kg, 10 mg/kg and 20 mg/kg doses

CN(C)CCCN1c2ccccc2CCc2ccccc21 [Imipramine, imipramine]
ED50 [1, 4]: 10 mg/kg
ED50 [1, 5]: 8.5 mg/kg
ED50 [1, 6]: 9.1 mg/kg
ED50 [1, 7]: 7.6 mg/kg
isolation-induced DVoc rate during the anxiety-like phase (first five min time block) [1]: significant attenuation of the separation-induced DVoc rate at the 10 mg/kg and 15 mg/kg doses
isolation-induced DVoc rate during the depression-like phase (30-120 min) [1]: significant exacerbation of the DVoc rate in the 1 mg/kg, 3 mg/kg and 15 mg/kg doses (p^s<0.005) and a marginally significant exacerbation in the 10 mg/kg dose condition
distress vocalizations (DVocs) at the first five minute time block ([2]; IP 15 minute before tests, imipramine 15 mg/kg): attenuated DVocs
DVoc rates at the 20 minute block and beyond ([2]; imipramine 15 mg/kg IP): enhanced DVoc rates
detection of anxiolytic activity on separation-induced distress vocalizations (domestic fowl chicks): successful detection
detection in the chick separation stress paradigm (domestic fowl chicks): selectively detected

CNC1(c2ccccc2Cl)CCCCC1=O (centres unmarked) [Ketamine, ketamine]
antidepressant activity, follow-up study with ketamine at lower doses ([3]; Black Australorps): failed to see antidepressant activity in either strain
ataxia ([3]; highest dose tested, strain not specified): transient (5-10 min) ataxia

CNCCCC12CCC(c3ccccc31)c1ccccc12 [Maprotiline, maprotiline]
ED50 ([1]; read-out: ED50 AD Effect (20-40 min time block)): 17.2 mg/kg
ED50 [1, 4]: 14 mg/kg
ED50 [1, 5]: 14.9 mg/kg
ED50 [1, 6]: 13.6 mg/kg
ED50 [1, 7]: 14.6 mg/kg
isolation-induced DVoc rate during the anxiety-like phase (first five min time block) [1]: significant attenuation of the separation-induced DVoc rate at the 20 mg/kg dose
isolation-induced DVoc rate during the depression-like phase (30-120 min) [1]: the three lowest doses (2.5 mg/kg, 5 mg/kg, and 10 mg/kg) exacerbated DVocs

Cc1nnc2n1-c1ccc(Cl)cc1C(c1ccccc1)=NC2 [alprazolam]
detection in the chick separation stress paradigm (domestic fowl chicks): selectively detected

CC(N)Cc1ccccc1 (centres unmarked) [amphetamine]
detection of anxiolytic activity on separation-induced distress vocalizations (domestic fowl chicks): insensitive

O=C1CC2(CCCC2)CC(=O)N1CCCCN1CCN(c2ncccn2)CC1 [buspirone]
detection in the chick separation stress paradigm (domestic fowl chicks): insensitive

CNC1=Nc2ccc(Cl)cc2C(c2ccccc2)=[N+]([O-])C1 [chlordiazepoxide]
sleep onset latency (SOL) to index sedation [1]: significant SOL reduction in the 10 mg/kg dose

CN(C)CCCN1c2ccccc2Sc2ccc(Cl)cc21 [chlorpromazine]
detection of anxiolytic activity on separation-induced distress vocalizations (domestic fowl chicks): insensitive

Clc1cccc(Cl)c1N=C1NCCN1 [clonidine]
sleep onset latency (SOL) to index sedation [1]: significant SOL reduction in the 0.15 mg/kg and 0.20 mg/kg doses (p^s<0.05) and a marginally significant reduction in the 0.25 mg/kg dose
isolation-induced DVoc rate during the anxiety-like phase (first five min time block) [1]: significant attenuation of the separation-induced DVoc rate at all doses
isolation-induced DVoc rate during the depression-like phase (30-120 min) [1]: did not reveal a significant effect
detection of anxiolytic activity on separation-induced distress vocalizations (domestic fowl chicks): successful detection
detection in the chick separation stress paradigm (domestic fowl chicks): selectively detected

O=C(CCCN1CCC(O)(c2ccc(Cl)cc2)CC1)c1ccc(F)cc1 [haloperidol]
detection of anxiolytic activity on separation-induced distress vocalizations (domestic fowl chicks): insensitive

CCCC(C)(COC(N)=O)COC(N)=O [meprobamate]
detection of anxiolytic activity on separation-induced distress vocalizations (domestic fowl chicks): successful detection

CCCC(C)C1(CC)C(=O)NC(=O)NC1=O (centres unmarked) [pentobarbital]
detection of anxiolytic activity on separation-induced distress vocalizations (domestic fowl chicks): successful detection

NNCCc1ccccc1 [phenelzine]
detection in the chick separation stress paradigm (domestic fowl chicks): selectively detected

CN1[C@@H]2C[C@@H](OC(=O)[C@H](CO)c3ccccc3)C[C@H]1[C@@H]1O[C@@H]12 [scopolamine]
detection of anxiolytic activity on separation-induced distress vocalizations (domestic fowl chicks): insensitive

O=c1n(CCCN2CCN(c3cccc(Cl)c3)CC2)nc2ccccn12 [trazodone]
detection in the chick separation stress paradigm (domestic fowl chicks): insensitive
